Assay results reported in PubChem BioAssay (NCI).
“And” between values parts separate entries of the source, which are not always exact repeats. Identical values can stand only once.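 A five-concentration, 48-hour dose response in 96-well plates underlies each endpoint, interpolated linearly between surrounding concentrations. At the GI50, growth is halved. Definition used: TGI = concentration required for complete inhibition of growth.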

Tests used:
Experiment in all cases: inhibition of tumour cell growth, NCI panel, 48 h
SW-620 colon = system: SW-620 colon
CCRF-CEM leukemia = system: CCRF-CEM leukemia
K-562 leukemia = system: K-562 leukemia
NCI-H23 lung = system: NCI-H23 lung
MALME-3M melanoma = system: MALME-3M melanoma
MDA-MB-231 breast = system: MDA-MB-231 breast
U251 CNS = system: U251 CNS
RXF 393 renal = system: RXF 393 renal
SR leukemia = system: SR leukemia
SN12C renal = system: SN12C renal

Row | Compound | GI50 (SW-620 colon) [µM] | TGI (SW-620 colon) [µM] | GI50 (CCRF-CEM leukemia) | TGI (CCRF-CEM leukemia) | GI50 (K-562 leukemia) | TGI (K-562 leukemia) | GI50 (NCI-H23 lung) [µM] | TGI (NCI-H23 lung) | GI50 (MALME-3M melanoma) [µM] | TGI (MALME-3M melanoma) | GI50 (MDA-MB-231 breast) [µM] | TGI (MDA-MB-231 breast) [µM] | GI50 (U251 CNS) | TGI (U251 CNS) | GI50 (RXF 393 renal) | TGI (RXF 393 renal) | GI50 (SR leukemia) [µM] | TGI (SR leukemia) [µM] | GI50 (SN12C renal) [µM] | TGI (SN12C renal)
1 | C#CCN(c1ccc(C(=O)N[C@@H](CCC(=O)N[C@H](CCC(=O)O)C(=O)O)C(=O)O)cc1)C1CCc2cc3nc(CO)[nH]c(=O)c3cc21 (stereo partly drawn) | > 44.5 | > 100 | > 36.3 µM | > 100 µM | > 100 µM | > 100 µM | 49.1 | > 100 µM | > 100 | > 100 µM | > 100 | > 100 | > 78.4 µM | > 100 µM | 63.8 µM | > 100 µM | 7.05 | > 100 | 6.78 | > 100 µM
2 | CC[C@@H](C)/C=C(C)/C=C/C(=O)c1c(O)c(-c2ccc(O)cc2)cn(O)c1=O | 0.55 | 14 | 0.314 µM | 13.1 µM | 0.392 µM | > 41.2 µM | 0.562 | 9.93 µM | 0.255 | 4.7 µM | 0.733 | 23 | 0.374 µM | 11.2 µM | 0.22 µM | 2.25 µM | 0.25 | 4.82 | 0.391 | 12.3 µM
3 | CC(C)COc1nc2c(c(=O)n(C)c(=O)n2C)n1C | > 100 | > 100 | > 100 µM | > 100 µM | > 100 µM | > 100 µM | > 100 | > 100 µM | > 100 | > 100 µM | > 100 | > 100 | > 100 µM | > 100 µM | > 100 µM | > 100 µM | > 100 | > 100 | > 100 | > 100 µM
4 | COc1cc(C(=O)c2cnc(-c3cccc4[nH]ccc34)[nH]2)cc(OC)c1OC |  | > 100 |  | > 100 µM | 0.0386 µM and < 0.01 µM | 42.3 µM |  | > 100 µM | 19.6 | 83 µM |  | 20.7 | 0.0603 µM and < 0.01 µM | 40 µM | 0.113 µM |  | < 0.01 | > 100 |  | > 100 µM
5 | NS(=O)(=O)c1cc(C(=O)O)c(O)c2ccccc12 |  | > 100 |  | > 100 µM |  | > 100 µM |  | > 100 µM |  | > 100 µM |  | > 100 |  | > 100 µM |  | > 100 µM |  | > 100 |  | > 100 µM
6 | CCc1nc2ccc(N=Nc3c(O)ccc4ccccc34)cc2[nH]1 |  | 54.4 |  | 26.4 µM |  | > 66.1 µM |  | 49.2 µM |  | 33.6 µM |  | 49.5 |  | 39.9 µM |  | 25.6 µM |  | 24.7 |  | 38.2 µM
7 | O=C(c1ccc(Cl)cc1)C(O)c1ccc(Cl)cc1 (stereo not drawn) |  | > 100 |  | > 100 µM |  | > 100 µM |  | > 100 µM |  | > 100 µM |  | > 100 |  | > 100 µM |  | > 100 µM |  | > 100 |  | > 100 µM
8 | Cc1cc(Nc2nc(N[C@@H](C)c3ncc(F)cn3)ncc2Cl)n[nH]1 | 22.6 | > 100 | 55.7 µM | > 100 µM | 32.2 µM | > 100 µM | 23.1 | > 100 µM | 47.1 | > 100 µM | 30.6 | > 100 | 24.5 µM | > 100 µM | 5.07 µM | 19.9 µM | 4.15 | > 100 | 20.4 | > 100 µM
9 | O=C(O)C1[O][Sb][O]C(C(=O)O)C1O (stereo not drawn) | > 100 | > 100 | > 100 µM | > 100 µM | > 100 µM | > 100 µM | > 100 | > 100 µM | > 100 | > 100 µM | > 100 | > 100 | > 100 µM | > 100 µM | > 100 µM | > 100 µM | > 100 | > 100 | > 100 | > 100 µM
10 | Clc1ccccc1-c1nnc2c(Cc3ccccc3)nc3ccccc3n12 | 20.7 | > 100 | 7.11 µM | > 100 µM | 5.55 µM | > 100 µM | > 100 | > 100 µM | 33 | > 100 µM | 7.09 | > 100 | 4.21 µM | > 100 µM | 3.29 µM | > 100 µM | 3.91 | > 100 | > 100 | > 100 µM
11 | Cc1cc(-c2cc(O)ccc2Cl)cc2nnc(Nc3ccc(OCCN4CCCC4)cc3)nc12 | 0.205 | 0.399 | 0.242 µM | 0.634 µM | 0.0443 µM | 0.245 µM | 0.812 | 2.48 µM | 0.19 | 0.426 µM | 0.299 | 0.967 | 0.194 µM | 0.372 µM | 1.2 µM | 2.61 µM | 0.239 | 0.595 | 1.47 | 3.03 µM
12 | O=C1/C(=C/c2ccc(Cl)cc2)CNC/C1=C\c1ccc(Cl)cc1 | 0.381 |  | 0.596 µM and 1.32 µM | 10.3 µM and > 100 µM | 0.551 µM and 1.37 µM | 17.3 µM and > 100 µM |  | 4.17 µM and 4.24 µM |  | 20.5 µM and 16.8 µM |  | > 100 | 0.502 µM | 3.67 µM and 1.78 µM | 1.64 µM and 3.97 µM | 3 µM and 7.85 µM |  | > 100 |  | 6.38 µM and 14.3 µM
13 | COC(=O)c1oc2c(C(=O)/C=C/c3ccc(OC)cc3)c(OCCN(C)C)ccc2c1C | 2.4 | 7.43 | 2.24 µM | 6.93 µM | 2.24 µM | 8.49 µM | 9.76 | 26.1 µM | 11.4 | 27.8 µM | 8.33 | 22.9 | 5.72 µM | 19.3 µM | 3.91 µM | 14.6 µM | 2.37 | 7.38 | 5.31 | 20.4 µM
14 | CCN(Cc1cccc(Cl)c1)c1ccc(CO)c(Cl)c1 | 1.56 | 18.1 | 11.9 µM | 35.4 µM | 1.65 µM | > 50 µM | 7.51 | 23.7 µM | 15.8 | 32.8 µM | 12.9 | 30.2 | 1.09 µM | 14.6 µM | 4.67 µM | 19.8 µM | 16.9 | 39.9 | 11.9 | 27.3 µM
